Test results as given in BindingDB's records for patent US20240101551 (Chia Tai Tianqing Pharmaceutical Group, 2024).

Target: T1, Bromodomain-containing protein 4 [75-147] (Homo sapiens, UniProt O60885)
T1 construct: 75-147
Assay: In Vitro Enzymatic Activity Assay
Procedure: In the present application, the IC50 value of the compound of formula (I) in inhibiting BRD4 (BD1) enzyme binding reaction were determined by homogeneous time resolved fluorescence (HTRF). The compound of formula (I) was serially diluted 5-fold with 100% DMSO starting from 0.2 mM (7 concentrations in total), and then 2 μL of the compound of formula (I) at each concentration was added to 48 μL of a reaction buffer (20 mM HEPES pH 7.5, 150 mM NaCl, 5 mM DTT, 0.005 % Tween 20, and 100 μg/mL BSA) for dilution, and mixed well. 2.5 μL of the resulting mixture was added to a 384-well plate (OptiPlate-384, purchased from PerkinElmer), then 5 μL of GST-BRD4 (BD1, 44-168 aa) (final concentration: 1 nM) was added, and the resulting mixture was centrifuged, and fully mixed. 2.5 μL of a short peptide Biotin-AHA-SGRGK(Ac)GGK(Ac)GLGK(Ac)GGAK(Ac) RHRKV (final concentration: 100 nM) was then added to initiate the reaction (total reaction volume: 10 μL). […] After being incubated in the incubator for another 1 hour, the fluorescence values (excited at 320 nm, emitted light at 665 nm and 620 nm being detected, and the ratio of the two being the enzyme binding signal) were read on Envision (purchased from PerkinElmer).

Cn1cc(-c2nc(CS(C)(=O)=O)ccc2Oc2ccc(F)cc2F)c2cc[nH]c2c1=O [US20240101551, Compound of Formula I]
IC50: 0.64 nM
